Measured values as given in PubChem BioAssay (NCI).
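Five concentrations, 48 hours, 96-well plates. GI50: concentration for 50% inhibition of growth. TGI: total growth inhibition.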

How the values were obtained:
Experiment in all cases: inhibition of tumour cell growth, NCI panel, 48 h
A498 renal = system: A498 renal
A549 NSCLC = system: A549 NSCLC
M14 melanoma = system: M14 melanoma
MDA-N = system: MDA-N
MOLT-4 leukemia = system: MOLT-4 leukemia
NCI-H23 lung = system: NCI-H23 lung
NCI-H522 lung = system: NCI-H522 lung
SN12C renal = system: SN12C renal
U251 CNS = system: U251 CNS
HOP-92 NSCLC = system: HOP-92 NSCLC
HT29 colon = system: HT29 colon

SMILES: CCOC(=O)c1ccc(C(=O)/C(C(C)=O)=C2\CCCN2C)n1C
- TGI (A498 renal): > 100 µM
- TGI (A549 NSCLC): > 100 µM
- TGI (M14 melanoma): > 100 µM
- TGI (MDA-N): > 100 µM
- TGI (MOLT-4 leukemia): > 100 µM
- TGI (NCI-H23 lung): > 100 µM
- TGI (NCI-H522 lung): > 100 µM
- TGI (SN12C renal): > 100 µM
- TGI (U251 CNS): > 100 µM

SMILES: c1ccc2c(c1)ncn2C1CCCCO1 (stereo not drawn)
- TGI (A549 NSCLC): > 100 µM
- TGI (HOP-92 NSCLC): > 100 µM
- TGI (HT29 colon): > 100 µM
- TGI (M14 melanoma): > 100 µM
- TGI (MDA-N): > 100 µM
- TGI (MOLT-4 leukemia): > 100 µM
- TGI (NCI-H23 lung): > 100 µM
- TGI (NCI-H522 lung): > 100 µM
- TGI (SN12C renal): > 100 µM
- TGI (U251 CNS): > 100 µM

SMILES: O=C1/C(=C/c2ccc(Cl)cc2)N=C(c2ccccc2)N1CCc1cccs1
- GI50 (A498 renal): 16.7 µM
- TGI (A498 renal): > 100 µM
- GI50 (A549 NSCLC): 31.4 µM
- TGI (A549 NSCLC): > 100 µM
- GI50 (HOP-92 NSCLC): 3.49 µM
- TGI (HOP-92 NSCLC): 38.5 µM
- GI50 (HT29 colon): 20.3 µM
- TGI (HT29 colon): > 100 µM
- GI50 (MOLT-4 leukemia): 16.5 µM
- TGI (MOLT-4 leukemia): > 100 µM
- GI50 (NCI-H23 lung): 20 µM
- TGI (NCI-H23 lung): > 100 µM
- GI50 (NCI-H522 lung): 15.3 µM
- TGI (NCI-H522 lung): 74 µM
- GI50 (SN12C renal): 21.1 µM
- TGI (SN12C renal): > 100 µM
- GI50 (U251 CNS): 22.4 µM
- TGI (U251 CNS): > 100 µM

SMILES: CCOc1ccc(/C=N/[N+](C)(C)C)cc1OCC
- TGI (A549 NSCLC): > 10 µM
- TGI (HOP-92 NSCLC): > 10 µM
- TGI (HT29 colon): > 10 µM
- TGI (M14 melanoma): > 10 µM
- TGI (MDA-N): > 10 µM
- TGI (MOLT-4 leukemia): > 10 µM
- TGI (NCI-H23 lung): > 10 µM
- TGI (NCI-H522 lung): > 10 µM
- TGI (SN12C renal): > 10 µM
- TGI (U251 CNS): > 10 µM

SMILES: COCOc1c(C(O[Si](C)(C)C(C)(C)C)c2cnc(Sc3ccccc3)n2C)ccc(OC)c1OC (stereo not drawn)
- TGI (A549 NSCLC): 4.33 µM
- TGI (HOP-92 NSCLC): 6.36 µM
- TGI (HT29 colon): 4.15 µM
- TGI (MDA-N): 3.34 µM
- TGI (MOLT-4 leukemia): 8.95 µM
- TGI (NCI-H23 lung): > 100 µM
- TGI (NCI-H522 lung): 3.58 µM
- TGI (SN12C renal): 3.31 µM
- TGI (U251 CNS): 3.1 µM

SMILES: CSCCCNC(=O)c1csc(-c2csc(C(CNC(=O)OC(C)(C)C)CNC(=O)OC(C)(C)C)n2)n1
- TGI (A498 renal): > 100 µM
- TGI (HOP-92 NSCLC): > 100 µM
- TGI (M14 melanoma): > 100 µM
- TGI (MDA-N): > 100 µM
- TGI (MOLT-4 leukemia): 43.9 µM
- TGI (NCI-H23 lung): > 100 µM
- TGI (NCI-H522 lung): 94.5 µM
- TGI (SN12C renal): > 100 µM
- TGI (U251 CNS): 71.5 µM

SMILES: COC(=O)/C=C/c1ccc2c(c1)CC1(C2)Cc2cc3c(cc2C1=O)CCC3 (stereo not drawn)
- TGI (A498 renal): > 100 µM
- TGI (A549 NSCLC): > 100 µM
- TGI (HOP-92 NSCLC): > 100 µM
- TGI (M14 melanoma): > 100 µM
- TGI (MDA-N): > 100 µM
- TGI (MOLT-4 leukemia): > 100 µM
- TGI (NCI-H522 lung): > 100 µM
- TGI (SN12C renal): > 100 µM
- TGI (U251 CNS): > 100 µM

SMILES: Nc1nc(N)c2ncn(Cc3ccccc3CCl)c2n1
- TGI (A498 renal): > 100 µM
- TGI (A549 NSCLC): > 100 µM
- TGI (HOP-92 NSCLC): > 100 µM
- TGI (HT29 colon): > 100 µM
- TGI (M14 melanoma): > 100 µM
- TGI (MOLT-4 leukemia): > 100 µM
- TGI (NCI-H23 lung): > 100 µM
- TGI (NCI-H522 lung): > 100 µM
- TGI (SN12C renal): > 100 µM
- TGI (U251 CNS): > 100 µM

SMILES: CCCCNC(=S)Nc1nc(C(=O)NNC(=S)NC2CCCCC2)cs1
- TGI (A498 renal): > 100 µM
- TGI (A549 NSCLC): > 100 µM
- TGI (HOP-92 NSCLC): > 100 µM
- TGI (HT29 colon): > 100 µM
- TGI (M14 melanoma): > 100 µM
- TGI (MDA-N): > 100 µM
- TGI (NCI-H23 lung): > 100 µM
- TGI (NCI-H522 lung): > 100 µM
- TGI (SN12C renal): > 100 µM
- TGI (U251 CNS): > 100 µM

SMILES: CCCCCCCCCCCCCC[S+](C)C
- TGI (A549 NSCLC): 4.14 µM
- TGI (HOP-92 NSCLC): 3.67 µM
- TGI (HT29 colon): 4.93 µM
- TGI (M14 melanoma): 3.57 µM
- TGI (MDA-N): 4.15 µM
- TGI (MOLT-4 leukemia): 2.85 µM
- TGI (NCI-H23 lung): 4.09 µM
- TGI (NCI-H522 lung): 4.33 µM
- TGI (SN12C renal): 3.24 µM
- TGI (U251 CNS): 2.28 µM

SMILES: COC(=O)c1ccc(C)cc1/C=C1\Cc2ccc(C)cc2C1=O
- TGI (A498 renal): 47.9 µM
- TGI (A549 NSCLC): 98.4 µM
- TGI (HOP-92 NSCLC): 35.2 µM
- TGI (HT29 colon): 40.9 µM
- TGI (M14 melanoma): 33.5 µM
- TGI (MOLT-4 leukemia): > 100 µM
- TGI (NCI-H23 lung): 99.4 µM
- TGI (NCI-H522 lung): 45 µM
- TGI (SN12C renal): 32.9 µM
- TGI (U251 CNS): 32.3 µM

SMILES: CC(=O)OCC1OC(SC2OC(COC(C)=O)C(OC(C)=O)C(OC(C)=O)C2OC(C)=O)C(OC(C)=O)C(OC(C)=O)C1OC(C)=O (stereo not drawn)
- TGI (A498 renal): > 100 µM
- TGI (A549 NSCLC): > 100 µM
- TGI (HT29 colon): > 100 µM
- TGI (MDA-N): > 100 µM
- TGI (MOLT-4 leukemia): > 100 µM
- TGI (NCI-H23 lung): > 100 µM
- TGI (SN12C renal): > 100 µM
- TGI (U251 CNS): > 100 µM

SMILES: CC(=O)OC(CCC1(C)OC1COc1ccc(CCNC(=O)c2ccccc2)cc1)C(C)(C)OC(C)=O (stereo not drawn)
- TGI (A549 NSCLC): > 100 µM
- TGI (HOP-92 NSCLC): > 100 µM
- TGI (HT29 colon): 44 µM
- TGI (M14 melanoma): 30.1 µM
- TGI (MOLT-4 leukemia): > 100 µM
- TGI (NCI-H23 lung): 97.2 µM
- TGI (NCI-H522 lung): > 100 µM
- TGI (SN12C renal): > 100 µM
- TGI (U251 CNS): > 100 µM

SMILES: N#C/C(=C\c1cc(Cl)cc(Cl)c1)c1ccccn1
- TGI (A498 renal): 8.25 µM
- TGI (A549 NSCLC): > 100 µM
- TGI (HT29 colon): > 100 µM
- TGI (M14 melanoma): > 100 µM
- TGI (MDA-N): 40.2 µM
- TGI (MOLT-4 leukemia): > 100 µM
- TGI (NCI-H23 lung): > 100 µM
- TGI (NCI-H522 lung): > 100 µM
- TGI (SN12C renal): > 100 µM
- TGI (U251 CNS): > 100 µM

SMILES: N#CCCN(CCC#N)c1ccc(/C=C2\N=C(c3ccccc3)N(NC(N)=S)C2=O)cc1
- TGI (A498 renal): > 100 µM
- TGI (A549 NSCLC): > 100 µM
- TGI (HOP-92 NSCLC): > 100 µM
- TGI (HT29 colon): > 100 µM
- TGI (M14 melanoma): > 100 µM
- TGI (MDA-N): > 100 µM
- TGI (MOLT-4 leukemia): > 100 µM
- TGI (SN12C renal): > 100 µM
- TGI (U251 CNS): > 100 µM

SMILES: O=c1[nH]c(=O)n(C2CC(O)C(CO)O2)cc1C1=NC1 (stereo not drawn)
- TGI (A498 renal): > 100 µM
- TGI (A549 NSCLC): > 100 µM
- TGI (HOP-92 NSCLC): > 100 µM
- TGI (HT29 colon): > 100 µM
- TGI (M14 melanoma): > 100 µM
- TGI (MDA-N): > 100 µM
- TGI (MOLT-4 leukemia): > 100 µM
- TGI (NCI-H23 lung): > 100 µM
- TGI (SN12C renal): > 100 µM
- TGI (U251 CNS): > 100 µM

SMILES: Nc1[nH]c(=S)nc2snnc12
- TGI (A498 renal): > 100 µM
- TGI (A549 NSCLC): > 100 µM
- TGI (HOP-92 NSCLC): > 100 µM
- TGI (HT29 colon): > 100 µM
- TGI (MDA-N): > 100 µM
- TGI (MOLT-4 leukemia): > 100 µM
- TGI (NCI-H23 lung): > 100 µM
- TGI (NCI-H522 lung): > 100 µM
- TGI (SN12C renal): > 100 µM

SMILES: CC(=O)O[C@@H]1C2=C(C)C=C(O2)[C@H]2O[C@]2(C)C[C@H]2C=C(C(=O)O2)[C@H](OC(C)=O)CC1[C@@]1(C)CO1 (stereo partly drawn)
- TGI (A498 renal): > 100 µM
- TGI (A549 NSCLC): > 100 µM
- TGI (HT29 colon): > 100 µM
- TGI (M14 melanoma): 64.2 µM
- TGI (MDA-N): > 100 µM
- TGI (MOLT-4 leukemia): 25.2 µM
- TGI (NCI-H23 lung): > 100 µM
- TGI (NCI-H522 lung): 12.5 µM
- TGI (SN12C renal): 69.8 µM
- TGI (U251 CNS): 40.1 µM

SMILES: C/C(=C/C(=O)Nn1c(Cc2ccccc2)n[nH]c1=O)C(=O)O
- TGI (A549 NSCLC): > 100 µM
- TGI (HT29 colon): > 100 µM
- TGI (M14 melanoma): > 100 µM
- TGI (MDA-N): > 100 µM
- TGI (MOLT-4 leukemia): > 100 µM
- TGI (NCI-H23 lung): > 100 µM
- TGI (NCI-H522 lung): > 100 µM
- TGI (SN12C renal): > 100 µM
- TGI (U251 CNS): > 100 µM

SMILES: O=C(O)c1cnc2[nH]ccn2c1=O
- TGI (A498 renal): > 100 µM
- TGI (A549 NSCLC): > 100 µM
- TGI (HOP-92 NSCLC): > 100 µM
- TGI (HT29 colon): > 100 µM
- TGI (M14 melanoma): > 100 µM
- TGI (MDA-N): > 100 µM
- TGI (MOLT-4 leukemia): > 100 µM
- TGI (NCI-H23 lung): > 100 µM
- TGI (SN12C renal): > 100 µM
- TGI (U251 CNS): > 100 µM

SMILES: CCOC(=O)Cc1nc2sc(S(N)(=O)=O)nn2c1Br
- TGI (A498 renal): 65.6 µM
- TGI (A549 NSCLC): > 100 µM
- TGI (HOP-92 NSCLC): 41.1 µM
- TGI (HT29 colon): 45.1 µM
- TGI (M14 melanoma): 33.8 µM
- TGI (MDA-N): > 100 µM
- TGI (NCI-H23 lung): 81.5 µM
- TGI (NCI-H522 lung): 39.5 µM
- TGI (SN12C renal): 52.5 µM
- TGI (U251 CNS): 37.9 µM
